From US4792545A, “Boholmycin antibiotic” (Bristol-Myers Company, priority 1986, dated 1988)
In brackets after ≈: the same amount, converted by molar mass.

What was measured:
E. coli D64 = assay: stimulating growth of streptomycin-dependent E. coli D64 (paper disc); assay type: cell-based; conditions: 37° C., 45 hours
From the text: The results are shown in Table 4 wherein the term "boholmycin" is used for short in referring to boholmycin dihydrochloride tetrahydrate.

B. subtilis PCI-219 = assay: inhibiting growth of B. subtilis PCI-219 (paper disc); assay type: cell-based; conditions: for Inhibition zone vs B. subtilis PCI-219: 28° C., 18 hours
Protocol: Boholmycin dihydrochloride tetrahydrate was tested in comparison with streptomycin, glebomycin, myomycin B and kanamycin in respect to stimulating growth of E. coli D64 and in respect to inhibiting growth of B. subtilis PCI-219. The results are shown in Table 4 wherein the term "boholmycin" is used for short in referring to boholmycin dihydrochloride tetrahydrate.
*^1 8 mm paper disc containing 35 μl of test solution
*^3 Incubation at 28° C. for 18 hours

S. aureus 209P = assay: MIC by serial agar dilution; assay type: cell-based; conditions: Staphylococcus aureus, 209P
S. aureus Smith [1] = assay: MIC by serial agar dilution; assay type: cell-based; conditions: Staphylococcus aureus
S. aureus A20239 = assay: MIC by serial agar dilution; assay type: cell-based; conditions: Staphylococcus aureus, A20239
M. luteus PCI-1001 = assay: MIC by serial agar dilution; assay type: cell-based; conditions: Micrococcus luteus, PCI1001
M. flavus D-12 = assay: MIC by serial agar dilution; assay type: cell-based; conditions: Micrococcus flavus, D12, medium A: Nutrient agar, read-out: MIC
B. subtilis ATCC6633 = assay: MIC by serial agar dilution; assay type: cell-based; conditions: Bacillus subtilis, medium A: Nutrient agar, read-out: MIC
B. anthracis IID-115 = assay: microbe, parasite or virus in culture; assay type: cell-based; conditions: Bacillus anthracis, IID115
E. coli NIHJ = assay: MIC by serial agar dilution; assay type: cell-based; conditions: Escherichia coli, medium A: Nutrient agar, read-out: MIC
E. coli Juhl [2] = assay: MIC by serial agar dilution; assay type: cell-based; conditions: Escherichia coli, medium A: Nutrient agar, read-out: MIC
E. coli K-12 = assay: MIC by serial agar dilution; assay type: cell-based; conditions: Escherichia coli, K12, medium A: Nutrient agar, read-out: MIC
E. coli A20664 = assay: MIC by serial agar dilution; assay type: cell-based; conditions: Escherichia coli; E. coli A20664, kanamycin resistant strain; medium A: Nutrient agar; read-out: MIC
E. coli JR35/c600 = assay: MIC by serial agar dilution; assay type: cell-based; conditions: Escherichia coli, JR35/C600
K. pneumoniae D-11 [3] = assay: MIC by serial agar dilution; assay type: cell-based; conditions: Klebsiella pneumoniae, D11, medium A: Nutrient agar, read-out: MIC
K. pneumoniae A9678 = assay: MIC by serial agar dilution; assay type: cell-based; conditions: Klebsiella pneumoniae, medium A: Nutrient agar, read-out: MIC
E. cloacae A20364 = assay: MIC by serial agar dilution; assay type: cell-based; conditions: Enterobacter cloacae; E. cloacae A20364, kanamycin resistant strain; medium A: Nutrient agar; read-out: MIC
E. cloacae A21006 = assay: MIC by serial agar dilution; assay type: cell-based; conditions: Enterobacter cloacae; E. cloacae A21006, kanamycin resistant strain; medium A: Nutrient agar; read-out: MIC
P. mirabilis A9554 = assay: MIC by serial agar dilution; assay type: cell-based; conditions: Proteus mirabilis, medium A: Nutrient agar, read-out: MIC
P. vulgaris A9436 = assay: MIC by serial agar dilution; assay type: cell-based; conditions: Proteus vulgaris, medium A: Nutrient agar, read-out: MIC
S. marcescens A20019 = assay: MIC by serial agar dilution; assay type: cell-based; conditions: Serratia marcescens, A20019
S. marcescens A22302 = assay: MIC by serial agar dilution; assay type: cell-based; conditions: Serratia marcescens, A22302
P. aeruginosa A9930 = assay: MIC by serial agar dilution; assay type: cell-based; conditions: Pseudomonas aeruginosa, medium A: Nutrient agar, read-out: MIC
P. aeruginosa A9843A = assay: microbe, parasite or virus in culture; assay type: cell-based; conditions: Pseudomonas aeruginosa, A9843A
P. aeruginosa A20601 = assay: MIC by serial agar dilution; assay type: cell-based; conditions: Pseudomonas aeruginosa; P. aeruginosa A20601, kanamycin resistant strain; medium A: Nutrient agar; read-out: MIC
Mycobacterium 607 D87 = assay: MIC by serial agar dilution; assay type: cell-based; conditions: Mycobacterium, 607D87
Mycobacterium 607 D46 = assay: MIC by serial agar dilution; assay type: cell-based; conditions: Mycobacterium 607 D46, kanamycin resistant strain; medium B: No. 1001 medium; read-out: MIC
Mycobacterium phlei = assay: MIC by serial agar dilution; assay type: cell-based; conditions: Mycolicibacterium phlei
Mycobacterium ranae = assay: MIC by serial agar dilution; assay type: cell-based; conditions: Mycobacterium
S. aureus Smith [4] = assay: in vivo efficacy in mice against experimental infection; conditions: Staphylococcus aureus, im, 120 h, read-out: PD50
E. coli Juhl [5] = assay: as above; conditions: Escherichia coli, im, 120 h, read-out: PD50
K. pneumoniae D-11 [6] = assay: as above; conditions: Klebsiella pneumoniae, D11, im, 120 h, read-out: PD50
[7] = Bacillus subtilis, PCI219, 18 h, read-out: Inhibition zone vs B. subtilis PCI-219

SMILES: CN[C@@H]1[C@H](O[C@H]2[C@H](O[C@H]3[C@H](O)[C@@H](O)[C@H](OC(N)=O)[C@@H](O)[C@@H]3N=C(N)N)O[C@@H](C)[C@]2(O)CO)O[C@@H](CO)[C@H](O)[C@H]1O [glebomycin]
- Growth zone vs E. coli D64 (E. coli D64; 1 mg/ml): 15 mm
- Growth zone vs E. coli D64 (E. coli D64; 4 mg/ml): 27 mm
- Inhibition zone vs B. subtilis PCI-219 (B. subtilis PCI-219; 1 mg/ml): 30 mm
- Inhibition zone vs B. subtilis PCI-219 (B. subtilis PCI-219; 4 mg/ml): 33 mm

SMILES: NC[C@H]1O[C@H](O[C@H]2[C@H](O)[C@@H](O[C@H]3O[C@H](CO)[C@@H](O)[C@H](N)[C@H]3O)[C@H](N)C[C@@H]2N)[C@H](O)[C@@H](O)[C@@H]1O [kanamycin]
- MIC (S. aureus 209P): 0.8 mg/L (≈ 1.65 µM)
- MIC (S. aureus Smith [1]): 0.4 mg/L (≈ 0.826 µM)
- MIC (S. aureus A20239): > 100 mg/L
- MIC (M. luteus PCI-1001): 6.3 mg/L (≈ 13 µM)
- MIC (M. flavus D-12): 1.6 mg/L (≈ 3.3 µM)
- MIC (B. subtilis ATCC6633): 0.2 mg/L (≈ 0.413 µM)
- MIC (B. anthracis IID-115): 0.4 mg/L (≈ 0.826 µM)
- MIC (E. coli NIHJ): 0.8 mg/L (≈ 1.65 µM)
- MIC (E. coli Juhl [2]): 1.6 mg/L (≈ 3.3 µM)
- MIC (E. coli K-12): 0.8 mg/L (≈ 1.65 µM)
- MIC (E. coli A20664): > 100 mg/L
- MIC (E. coli JR35/c600): > 100 mg/L
- MIC (K. pneumoniae D-11 [3]): 0.4 mg/L (≈ 0.826 µM)
- MIC (K. pneumoniae A9678): 3.1 mg/L (≈ 6.4 µM)
- MIC (E. cloacae A20364): > 100 mg/L
- MIC (E. cloacae A21006): > 100 mg/L
- MIC (P. mirabilis A9554): 0.8 mg/L (≈ 1.65 µM)
- MIC (P. vulgaris A9436): 0.2 mg/L (≈ 0.413 µM)
- MIC (S. marcescens A20019): 1.5 mg/L (≈ 3.1 µM)
- MIC (S. marcescens A22302): 50 mg/L (≈ 103 µM)
- MIC (P. aeruginosa A9930): 12.5 mg/L (≈ 25.8 µM)
- MIC (P. aeruginosa A9843A): 6.3 mg/L (≈ 13 µM)
- MIC (P. aeruginosa A20601): > 100 mg/L
- MIC (Mycobacterium 607 D87): 0.2 mg/L (≈ 0.413 µM)
- MIC (Mycobacterium 607 D46): > 100 mg/L
- MIC (Mycobacterium phlei): 0.4 mg/L (≈ 0.826 µM)
- MIC (Mycobacterium ranae): 0.2 mg/L (≈ 0.413 µM)
- zone of inhibition at 100 µg/mL (B. subtilis PCI-219; [7]): 30 mm
- zone of inhibition at 400 µg/mL (B. subtilis PCI-219; [7]): 34 mm
- ED50 (S. aureus Smith [4]): 1.1 mg/kg
- ED50 (E. coli Juhl [5]): 3.5 mg/kg
- ED50 (K. pneumoniae D-11 [6]): 1.1 mg/kg
